# Data published in patent US7135466B2 (Kirin Beer Kabushiki Kaisha, priority 1999, dated 2006).
# Where two headings read alike, the source gives them in different places.
# Target: T1, PDGF-Ra (Homo sapiens, UniProt P16234)
# T1 construct: host or cells: G-292 human osteosarcoma cells
# Test: Inhibitory activity against PDGF-Ra phosphorylation by PDGF-AA stimulation using G292
# Assay type: cell-based
# Conditions: for IC50: > means inhibition at indicated concentration not more than 50%, < and << not less than 50%, read-out: PDGF (E) IC50; for inhibition at 0.1 µM: G292, at 100 nM, read-out: PDGF (E) inhibition (%) at 100 nM
# Procedure: Measurement of Inhibitory Activity Against PDGF-Ra Phosphorylation by PDGF-AA Stimulation Using G292
# G-292 human osteosarcoma cells (Dainippon Pharmaceutical Co. Ltd.) were cultured in a DMEM medium (Dainippon Pharmaceutical Co. Ltd.) containing 10% FBS within an incubator containing 5% carbon dioxide until 80% confluent, and the cells were planted at 3×10^4 cells per well in 96-well flat-bottom plates in the same medium containing 0.1% FBS. After cultivation at 37° C. overnight, a solution of a test compound in dimethyl sulfoxide was added to each well, and a reaction was allowed to proceed at 37° C. for one hr.
# After the reaction of the test compound, PDGF-AA (Upstate) was added to 50 ng/ml, and the cells were stimulated at 37° C. for 5 min. Thereafter, the cells were solubilized and shaken at room temperature for 20 min.
# This solubilized cell solution was transferred to a 96-well plate coated with aniti-phosphotyrosine antibody PY-20, and a reaction was allowed to proceed at 4° C. overnight. Anti-PDGF-Ra (c-20) (Santa Cruz) was added as a primary antibody, and a reaction was allowed to proceed for one hr. GAR (Anti-rabbit Ig, horseradish peroxidase, Amersham) was then added as a secondary antibody, and a reaction was allowed to proceed for one hr. Color development was carried out using a color development kit for peroxidase (Sumitomo Bakelite Co., Ltd.), and the absorbance was measured at 450 nm.
# [1] = figure within parentheses in >100( )
# [2] = figure in parentheses in >100( )
# T1 sequence (P16234 24-1089): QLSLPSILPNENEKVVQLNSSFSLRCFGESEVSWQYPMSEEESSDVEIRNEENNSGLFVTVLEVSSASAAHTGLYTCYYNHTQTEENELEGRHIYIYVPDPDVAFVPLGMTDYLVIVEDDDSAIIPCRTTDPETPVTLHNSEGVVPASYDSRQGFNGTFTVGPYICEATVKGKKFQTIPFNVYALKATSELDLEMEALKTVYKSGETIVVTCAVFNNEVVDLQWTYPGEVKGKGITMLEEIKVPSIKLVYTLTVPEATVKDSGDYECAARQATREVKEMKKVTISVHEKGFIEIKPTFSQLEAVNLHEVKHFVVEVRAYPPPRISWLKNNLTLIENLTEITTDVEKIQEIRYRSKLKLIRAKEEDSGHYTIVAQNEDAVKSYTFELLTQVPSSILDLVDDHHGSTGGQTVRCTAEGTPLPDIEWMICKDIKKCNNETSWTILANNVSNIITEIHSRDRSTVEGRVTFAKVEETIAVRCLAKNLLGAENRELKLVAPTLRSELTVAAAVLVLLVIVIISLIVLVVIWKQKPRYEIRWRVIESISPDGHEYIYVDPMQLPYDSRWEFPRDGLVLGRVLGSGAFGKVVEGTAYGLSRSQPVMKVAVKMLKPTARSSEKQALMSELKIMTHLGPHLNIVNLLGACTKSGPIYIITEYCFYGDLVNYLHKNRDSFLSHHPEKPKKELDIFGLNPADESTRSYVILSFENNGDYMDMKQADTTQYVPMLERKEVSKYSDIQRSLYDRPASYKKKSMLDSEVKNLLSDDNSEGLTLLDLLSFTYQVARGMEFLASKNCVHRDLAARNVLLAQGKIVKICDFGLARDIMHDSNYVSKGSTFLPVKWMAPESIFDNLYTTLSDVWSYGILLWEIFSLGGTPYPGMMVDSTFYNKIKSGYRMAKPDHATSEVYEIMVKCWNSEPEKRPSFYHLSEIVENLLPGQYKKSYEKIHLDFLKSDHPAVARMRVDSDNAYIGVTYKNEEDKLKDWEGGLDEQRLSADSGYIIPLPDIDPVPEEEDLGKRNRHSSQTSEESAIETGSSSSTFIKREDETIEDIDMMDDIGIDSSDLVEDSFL
Molecule,IC50 [nM],also measured
"1-[3-(Trifluoromethoxy)phenyl]ethyl N-{4-[(6,7-dimethoxy-4-quinolyl)oxy]-2,3-dimethylphenyl}carbamate [Example 181]",,IC50 (Pharmacological Test Example 1): > 100 nM
"COc1cc2nccc(Oc3ccc(NC(=S)NNC4CCCCC4)c(C)c3C)c2cc1OC [Example 520, N-{4-[(6,7-Dimethoxy-4-quinolyl)oxy]-2,3-dimethylphenyl}-N′-(N-cyclohexylamino)thiourea]",> 100,inhibition at 0.1 µM [1]: 43%
COc1cc2ncnc(Oc3ccc(NC(=S)NCCNC(C)=O)cc3)c2cc1OC [Example 519],> 100,inhibition at 0.1 µM [1]: 22%
"COc1cc2nccc(Oc3ccc(NC(=O)OC(c4ccccc4)C(C)C)c(C)c3C)c2cc1OC (stereo not drawn) [Example 196, 2-Methyl-1-phenylpropyl N-{4-[(6,7-dimethoxy-4-quinolyl)oxy]-2,3-dimethylphenyl}carbamate]",,IC50 (Pharmacological Test Example 1): 49 nM
"N-{4-[(6,7-Dimethoxy-4-quinolyl)oxy]-2,5-dimethylphenyl}-N′-(N-cyclohexylamino)thiourea [Example 523]",> 100,
"C#CCC(CC)OC(=O)N(C)c1ccc(Oc2ncnc3cc(OC)c(OC)cc23)cc1 (stereo not drawn) [Example 495, 1-Ethyl-3-butynyl N-{4-[(6,7-dimethoxy-4-quinazolinyl)oxy]phenyl}-N-methylcarbamate]",65,
"CCOC(=O)CCCC(=O)NC(=S)Nc1ccc(Oc2ncnc3cc(OC)c(OC)cc23)cc1 [Example 1177, Ethyl 5-[({4-[(6,7-dimethoxy-4-quinazolinyl)oxy]anilino}carbothioyl)amino]-5-oxopentanoate]",17,
"COc1cc2ncnc(Oc3ccc(NC(=O)Oc4ccccc4C#N)cc3)c2cc1OC [Example 456, 2-Cyanophenyl N-{4-[(6,7-dimethoxy-4-quinazolinyl)oxy]phenyl}carbamate]",> 100,inhibition at 0.1 µM [1]: 21%
"COc1cc2nccc(Oc3ccc(NC(=S)NC(=O)C4CCCO4)cc3Cl)c2cc1OC (stereo not drawn) [Example 766, N-{3-Chloro-4-[(6,7-dimethoxy-4-quinolyl)oxy]phenyl}-N′-tetrahydro-2-furanylcarbonylthiourea]",> 100,inhibition at 0.1 µM [1]: 45%
"COc1cc2nccc(Oc3ccc(NC(=S)NC(=O)c4cccnc4)cc3)c2cc1OC [Example 1152, N-{4-[(6,7-Dimethoxy-4-quinolyl)oxy]phenyl}-N′-(3-pyridylcarbonyl)thiourea]",< 10,
"COc1cc2nccc(Oc3ccc(NC(=S)NC(=O)C(C)(C)Oc4ccc(Cl)cc4)cc3Cl)c2cc1OC [Example 758, N-{3-Chloro-4-[(6,7-dimethoxy-4-quinolyl)oxy]phenyl}-N′-[2-(4-chlorophenoxy)-2-methylpropanoyl]thiourea]",> 100,inhibition at 0.1 µM [1]: 18%
"COc1cc2ncnc(Oc3ccc(NC(=S)NC(=O)CCCCCl)cc3)c2cc1OC [Example 1170, N-(5-Chloropentanoyl)-N′-{4-[(6,7-dimethoxy-4-quinazolinyl)oxy]phenyl}thiourea]",< 10,
"COc1cc2ncnc(Oc3ccc(NC(=S)NC(=O)c4ccccc4C(F)(F)F)cc3)c2cc1OC [Example 1157, N-{4-[(6,7-Dimethoxy-4-quinazolinyl)oxy]phenyl}-N′-[2-(trifluoromethyl)benzoyl]thiourea]",< 10,
"COc1cc2nccc(Oc3cc(C)c(NC(=O)OCCN4C(=O)c5ccccc5C4=O)cc3C)c2cc1OC [Example 419, 2-(1,3-Dioxo-2,3-dihydro-1H-2-isoindolyl)ethyl N-{4-[(6,7-dimethoxy-4-quinolyl)oxy]-2,5-dimethylphenyl}carbamate]",> 100,inhibition at 0.1 µM [1]: 47%
"COc1ccc(C(=O)NC(=S)Nc2ccc(Oc3ccnc4cc(OC)c(OC)cc34)cc2Cl)c(OC)c1 [Example 1176, N-{2-Chloro-4-[(6,7-dimethoxy-4-quinolyl)oxy]phenyl}-N′-(2,4-dimethoxybenzoyl)thiourea]",> 100,
"COc1ccc(C(=O)NC(=S)Nc2ccc(Oc3ccnc4cc(OC)c(OC)cc34)cc2Cl)cc1 [Example 1173, N-{2-Chloro-4-[(6,7-dimethoxy-4-quinolyl)oxy]phenyl}-N′-(4-methoxybenzoyl)thiourea]",> 100,
"COc1cc2ncnc(Oc3ccc(NC(=O)OCC4CCC4)c(Cl)c3)c2cc1OC [Example 389, Cyclobutylmethyl N-{2-chloro-4-[(6,7-dimethoxy-4-quinazolinyl)oxy]phenyl}carbamate]",,IC50 (Pharmacological Test Example 1): 51 nM

Molecule,IC50 [nM],also measured
"CCCC(OC(=O)Nc1cc(C)c(Oc2ccnc3cc(OC)c(OC)cc23)cc1C)c1ccccc1 (stereo not drawn) [Example 186, 1-Phenylbutyl N-{4-[(6,7-dimethoxy-4-quinolyl)oxy]-2,5-dimethylphenyl}carbamate]",,IC50 (Pharmacological Test Example 1): 63 nM
"CCN(C(=S)NC(=O)C1CC1c1ccccc1)c1ccc(Oc2ccnc3cc(OC)c(OC)cc23)cc1 (stereo not drawn) [Example 1143, N-{4-[(6,7-Dimethoxy-4-quinolyl)oxy]phenyl}-N-ethyl-N′-[(2-phenylcyclopropyl)carbonyl]thiourea]",> 100,inhibition at 0.1 µM [2]: 32%
"COc1cc2ncnc(Oc3ccc(NC(=O)OC(c4ccccc4)C(C)C)cc3)c2cc1OC (stereo not drawn) [Example 198, 2-Methyl-1-phenylpropyl N-{4-[(6,7-dimethoxy-4-quinazolinyl)oxy]phenyl}carbamate]",,IC50 (Pharmacological Test Example 1): 21 nM
"COc1cc2nccc(Oc3ccc(NC(=O)OC(C)c4cccc(OC(F)(F)F)c4)cc3)c2cc1OC (stereo not drawn) [Example 180, 1-[3-(Trifluoromethoxy)phenyl]ethyl N-{4-[(6,7-dimethoxy-4-quinolyl)oxy]phenol}carbamate]",,IC50 (Pharmacological Test Example 1): 63 nM
"COc1cc2nccc(Oc3ccc(NC(=O)OCCN(C)C)c(C)c3C)c2cc1OC [Example 189, 2-(Dimethylamino)ethyl N-{4-[(6,7-dimethoxy-4-quinolyl)oxy]-2,3-dimethylphenyl}carbamate]",,IC50 (Pharmacological Test Example 1): 57 nM
"COc1cc2ncnc(Oc3ccc(NC(=O)NCCN(C(C)C)C(C)C)c([N+](=O)[O-])c3)c2cc1OC [Example 659, N-[2-(Diisopropylamino)ethyl]-N′-{4-[(6,7-dimethoxy-4-quinazolinyl)oxy]-2-nitrophenyl}urea]",19,
"COc1cc2ncnc(Oc3ccc(NC(=S)NC(=O)Cc4cccs4)cc3)c2cc1OC [Example 1172, N-{4-[(6,7-Dimethoxy-4-quinazolinyl)oxy]phenyl}-N′-[2-(2-thienyl)acetyl]thiourea]",34,
"COc1cc2nccc(Oc3ccc(NC(=O)ON4C(=O)c5ccccc5C4=O)cc3)c2cc1OC [Example 416, 1,3-Dioxo-2,3-dihydro-1H-2-isoindolyl N-{4-[(6,7-dimethoxy-4-quinolyl)oxy]phenyl}carbamate]",> 100,inhibition at 0.1 µM [1]: 49%
"COc1cc2ncnc(Oc3ccc(NC(=S)NC(=O)CCCl)cc3)c2cc1OC [Example 1199, N-(3-Chloropropanoyl)-N′-{4-[(6,7-dimethoxy-4-quinazolinyl)oxy]phenyl}thiourea]",42,
"COc1cc2nccc(Oc3ccc(NC(=S)NC(=O)c4ccc(Br)cc4)c(Cl)c3)c2cc1OC [Example 1167, N-(4-Bromobenzoyl)-N′-{2-chloro-4-[(6,7-dimethoxy-4-quinolyl)oxy]phenyl}thiourea]",> 100,
"COc1cc2nccc(Oc3ccc(NC(=S)NC(=O)c4ccc(C)cc4C)cc3Cl)c2cc1OC [Example 1016, N-{3-Chloro-4-[(6,7-dimethoxy-4-quinolyl)oxy]phenyl}-N′-(2,4-dimethylbenzoyl)thiourea]",48,
"COc1cc2ncnc(Oc3ccc(NC(=O)OCC4CC4)c(Cl)c3)c2cc1OC [Example 384, Cyclopropylmethyl N-{2-chloro-4-[(6,7-dimethoxy-4-quinazolinyl)oxy]phenyl}carbamate]",,inhibition at 0.1 µM [2]: 37%; IC50 (Pharmacological Test Example 1): > 100 nM
"COc1cc2ncnc(Oc3ccc(NC(=S)NC(=O)c4cc(Cl)cc(Cl)c4)cc3)c2cc1OC [Example 1158, N-(3,5-Dichlorobenzoyl)-N′-{4-[(6,7-dimethoxy-4-quinazolinyl)oxy]phenyl}thiourea]",46,
"COc1cc2nccc(Oc3ccc(NC(=S)NC(=O)CCc4cccc(C)c4)cc3Cl)c2cc1OC [Example 1184, N-{3-Chloro-4-[(6,7-dimethoxy-4quinolyl)oxy]phenyl}-N′-[3-(3-methylphenyl)propanoyl]thiourea]",55,
"COc1cc2ncnc(Oc3ccc(NC(=S)NC4CCN(Cc5ccccc5)CC4)cc3)c2cc1OC [Example 518, N-{4-[(6,7-Dimethoxy-4-quinazolinyl)oxy]phenyl}-N′-[4-(1-benzylpiperidinyl)]thiourea]",> 100,inhibition at 0.1 µM [1]: 17%
"COc1cc2nccc(Oc3ccc(NC(=S)NC(=O)c4cccc(Br)c4)c(Cl)c3)c2cc1OC [Example 1165, N-(3-Bromobenzoyl)-N′-{2-chloro-4-[(6,7-dimethoxy-4-quinolyl)oxy]phenyl}thiourea]",> 100,
"COc1cc2nccc(Oc3cc(C)c(NC(=O)Oc4cccc(C#N)c4)cc3C)c2cc1OC [Example 458, 3-Cyanophenyl N-{4-[(6,7-dimethoxy-4-quinolyl)oxy]-2,5-dimethylphenyl}carbamate]",> 100,inhibition at 0.1 µM [1]: 18%
